Test results as given in patent US6583175B2, “Alkylxanthates and use of alkylxanthates in the integrated pest management” (Council of Scientific & Industrial Research, priority 2001, dated 2003).
≈ marks a conversion by molar mass, not a printed value. Like-named read-outs stand apart in the source and are kept apart here.

Legend:
[1] = test system: lice; details: in vivo; cited from earlier work
[2] = in vivo; details: Artemia salina (brine shrimp), other: exposure in artificial seawater in the sample vial
[3] = test system: Spodoptera litura; assay: Antifeedant activity against late third instar of Spodoptera litura (leaf disk, oral feeding); type: in vivo; details: for Concentration required for 50% leaf protection EC50 ± S.E.: late third instar
[4] = test system: Aedes aegypti mosquito; details: various aquatic stages of Aedes aegypti; cited from earlier work
[5] = test system: Spodoptera litura; type: in vivo; details: topical
[6] = test system: Aedes aegypti; type: in vivo; details: IV instar larvae, 24 hours
[7] = test system: Brine shrimp, Artemia salina; details: in vivo

Q: For `S=C(OCc1ccccc1)SCCSC(=S)OCc1ccccc1` [Compound 5, Ethylene Bis(benzylxanthate)], which “insecticidal activity against lice” value [1] is on record?
A: The value was “moderate insecticidal activity”.

Q: For `CC(C)COC(=S)SCCSC(=S)OCC(C)C` [Ethylene bis (isobutylxanthate), Ethylene Bis (isobutylxanthate)], which LC50 at 24 h [2] is on record?
A: The LC50 at 24 h was 25.8 ± 2.9 µg/mL (≈ 78.9 µM).

Q: And the “A.I. (Anti-feedent Index)” value ([3]; 20 μg/sq. cm.)?
A: The value was 8.14.

Q: And the “Percent leaf consumption 12 hr” value ([3]; 20 μg/sq. cm.)?
A: The value was 60.2%.

Q: What about the “Percent leaf consumption 24 hr” value ([3]; 20 μg/sq. cm.) of the same molecule?
A: Its value is 80.7%.

Q: What about the “A.I. (Anti-feedent Index)” value ([3]; 35 μg/sq. cm.) of the same molecule?
A: Its value is 20.48.

Q: What about the “Percent leaf consumption 12 hr” value ([3]; 35 μg/sq. cm.) of the same molecule?
A: The value was 36.1%.

Q: What about the “Percent leaf consumption 24 hr” value ([3]; 35 μg/sq. cm.) of the same molecule?
A: Its value is 62.7%.

Q: What about the “A.I. (Anti-feedent Index)” value ([3]; 50 μg/sq. cm.) of the same molecule?
A: The value was 34.85.

Q: And the “Percent leaf consumption 12 hr” value ([3]; 50 μg/sq. cm.)?
A: Its value is 22.4%.

Q: And the “Percent leaf consumption 24 hr” value ([3]; 50 μg/sq. cm.)?
A: The value was 45.9%.

Q: And the “A.I. (Anti-feedent Index)” value ([3]; 65 μg/sq. cm.)?
A: The value was 58.07.

Q: And the “Percent leaf consumption 12 hr” value ([3]; 65 μg/sq. cm.)?
A: The value was 9.3%.

Q: And the “Percent leaf consumption 24 hr” value ([3]; 65 μg/sq. cm.)?
A: The value was 25.2%.

Q: And the “Concentration required for 50% leaf protection EC50 ± S.E.” value [3]?
A: The value was 42.46 ± 5.76 μg/cm^2.

Q: What about the “larvicidal and insect growth regulatory activity” value [4] of the same molecule?
A: Its value is “larvicidal and insect growth regulatory activity in dose dependent mannar”.

Q: For `S=C(OCC1CCCO1)SCSC(=S)OCC1CCCO1` (stereo not drawn) [methylene Bis (tetrahydrofurfuryl xanthate)], which “A.I. (Anti-feedent Index)” value ([3]; 12.5 μg/sq. cm.) is on record?
A: The value was 8.20.

Q: And the “Percent leaf consumption 12 hr” value ([3]; 12.5 μg/sq. cm.)?
A: Its value is 48.6%.

Q: What about the “Percent leaf consumption 24 hr” value ([3]; 12.5 μg/sq. cm.) of the same molecule?
A: Its value is 80.6%.

Q: What about the “A.I. (Anti-feedent Index)” value ([3]; 25 μg/sq. cm.) of the same molecule?
A: Its value is 22.42.

Q: And the “Percent leaf consumption 12 hr” value ([3]; 25 μg/sq. cm.)?
A: The value was 31.5%.

Q: And the “Percent leaf consumption 24 hr” value ([3]; 25 μg/sq. cm.)?
A: The value was 60.2%.

Q: And the “A.I. (Anti-feedent Index)” value ([3]; 35 μg/sq. cm.)?
A: Its value is 33.52.

Q: And the “Percent leaf consumption 12 hr” value ([3]; 35 μg/sq. cm.)?
A: The value was 25.9%.

Q: And the “Percent leaf consumption 24 hr” value ([3]; 35 μg/sq. cm.)?
A: Its value is 47.3%.

Q: And the “A.I. (Anti-feedent Index)” value ([3]; 50 μg/sq. cm.)?
A: The value was 35.23.

Q: And the “Percent leaf consumption 12 hr” value ([3]; 50 μg/sq. cm.)?
A: Its value is 22.1%.

Q: What about the “Percent leaf consumption 24 hr” value ([3]; 50 μg/sq. cm.) of the same molecule?
A: The value was 45.5%.

Q: What about the “Concentration required for 50% leaf protection EC50 ± S.E.” value [3] of the same molecule?
A: The value was 37.21 ± 9.67 μg/cm^2.

Q: What about the “Adult emergence: Abnormal adults” value ([5]; 5 μg/Insect) of the same molecule?
A: The value was 22.

Q: And the “Adult emergence: Intermediates” value ([5]; 5 μg/Insect)?
A: Its value is 0.

Q: And the “Adult emergence: Non-emergence” value ([5]; 5 μg/Insect)?
A: The value was 3.

Q: What about the “Adult emergence: Normal adults” value ([5]; 5 μg/Insect) of the same molecule?
A: The value was 37.

Q: And the “Larval mortality (%)” value ([5]; 5 μg/Insect)?
A: The value was 36%.

Q: And the “Pupal Formation: Abnormal pupa” value ([5]; 5 μg/Insect)?
A: The value was 6.

Q: What about the “Pupal Formation: Normal pupa” value ([5]; 5 μg/Insect) of the same molecule?
A: The value was 58.

Q: What about the “Pupal Formation: Pupal Mortality” value ([5]; 5 μg/Insect) of the same molecule?
A: Its value is 5.

Q: And the “Adult emergence: Abnormal adults” value ([5]; 10 μg/Insect)?
A: Its value is 19.

Q: What about the “Adult emergence: Intermediates” value ([5]; 10 μg/Insect) of the same molecule?
A: Its value is 1.

Q: What about the “Adult emergence: Non-emergence” value ([5]; 10 μg/Insect) of the same molecule?
A: The value was 2.

Q: What about the “Adult emergence: Normal adults” value ([5]; 10 μg/Insect) of the same molecule?
A: Its value is 28.

Q: What about the “Larval mortality (%)” value ([5]; 10 μg/Insect) of the same molecule?
A: The value was 46%.

Q: What about the “Pupal Formation: Abnormal pupa” value ([5]; 10 μg/Insect) of the same molecule?
A: Its value is 10.

Q: What about the “Pupal Formation: Normal pupa” value ([5]; 10 μg/Insect) of the same molecule?
A: The value was 44.

Q: And the “Pupal Formation: Pupal Mortality” value ([5]; 10 μg/Insect)?
A: Its value is 6.

Q: And the “Adult emergence: Abnormal adults” value ([5]; 20 μg/Insect)?
A: The value was 17.

Q: What about the “Adult emergence: Intermediates” value ([5]; 20 μg/Insect) of the same molecule?
A: The value was 21.

Q: What about the “Adult emergence: Non-emergence” value ([5]; 20 μg/Insect) of the same molecule?
A: The value was 2.

Q: What about the “Adult emergence: Normal adults” value ([5]; 20 μg/Insect) of the same molecule?
A: The value was 15.

Q: What about the “Larval mortality (%)” value ([5]; 20 μg/Insect) of the same molecule?
A: The value was 59%.

Q: What about the “Pupal Formation: Abnormal pupa” value ([5]; 20 μg/Insect) of the same molecule?
A: Its value is 16.

Q: And the “Pupal Formation: Normal pupa” value ([5]; 20 μg/Insect)?
A: The value was 25.

Q: What about the “Pupal Formation: Pupal Mortality” value ([5]; 20 μg/Insect) of the same molecule?
A: The value was 7.

Q: And the “Adult emergence: Abnormal adults” value ([5]; 35 μg/Insect)?
A: Its value is 11.

Q: What about the “Adult emergence: Intermediates” value ([5]; 35 μg/Insect) of the same molecule?
A: The value was 2.

Q: And the “Adult emergence: Non-emergence” value ([5]; 35 μg/Insect)?
A: The value was 3.

Q: And the “Adult emergence: Normal adults” value ([5]; 35 μg/Insect)?
A: The value was 9.

Q: What about the “Larval mortality (%)” value ([5]; 35 μg/Insect) of the same molecule?
A: Its value is 71%.

Q: What about the “Pupal Formation: Abnormal pupa” value ([5]; 35 μg/Insect) of the same molecule?
A: Its value is 10.

Q: What about the “Pupal Formation: Normal pupa” value ([5]; 35 μg/Insect) of the same molecule?
A: The value was 19.

Q: And the “Pupal Formation: Pupal Mortality” value ([5]; 35 μg/Insect)?
A: Its value is 7.

Q: And the “Adult emergence: Abnormal adults” value ([5]; 50 μg/Insect)?
A: The value was 9.

Q: And the “Adult emergence: Intermediates” value ([5]; 50 μg/Insect)?
A: Its value is 3.

Q: What about the “Adult emergence: Non-emergence” value ([5]; 50 μg/Insect) of the same molecule?
A: Its value is 1.

Q: And the “Adult emergence: Normal adults” value ([5]; 50 μg/Insect)?
A: The value was 4.

Q: And the “Larval mortality (%)” value ([5]; 50 μg/Insect)?
A: The value was 80%.

Q: And the “Pupal Formation: Abnormal pupa” value ([5]; 50 μg/Insect)?
A: Its value is 13.

Q: And the “Pupal Formation: Normal pupa” value ([5]; 50 μg/Insect)?
A: The value was 7.

Q: What about the “Pupal Formation: Pupal Mortality” value ([5]; 50 μg/Insect) of the same molecule?
A: Its value is 4.

Q: What about the “Adult emergence: Abnormal adults” value ([5]; 75 μg/Insect) of the same molecule?
A: The value was 2.

Q: What about the “Adult emergence: Intermediates” value ([5]; 75 μg/Insect) of the same molecule?
A: Its value is 0.

Q: And the “Adult emergence: Non-emergence” value ([5]; 75 μg/Insect)?
A: Its value is 2.

Q: What about the “Adult emergence: Normal adults” value ([5]; 75 μg/Insect) of the same molecule?
A: The value was 2.

Q: What about the “Larval mortality (%)” value ([5]; 75 μg/Insect) of the same molecule?
A: The value was 91%.

Q: And the “Pupal Formation: Abnormal pupa” value ([5]; 75 μg/Insect)?
A: The value was 7.

Q: And the “Pupal Formation: Normal pupa” value ([5]; 75 μg/Insect)?
A: Its value is 2.

Q: What about the “Pupal Formation: Pupal Mortality” value ([5]; 75 μg/Insect) of the same molecule?
A: The value was 5.

Q: What about the “Adult emergence: Abnormal adults” value ([5]; 100 μg/Insect) of the same molecule?
A: The value was 1.

Q: What about the “Adult emergence: Intermediates” value ([5]; 100 μg/Insect) of the same molecule?
A: The value was 0.

Q: And the “Adult emergence: Non-emergence” value ([5]; 100 μg/Insect)?
A: Its value is 0.

Q: What about the “Adult emergence: Normal adults” value ([5]; 100 μg/Insect) of the same molecule?
A: Its value is 0.

Q: And the “Larval mortality (%)” value ([5]; 100 μg/Insect)?
A: The value was 98%.

Q: And the “Pupal Formation: Abnormal pupa” value ([5]; 100 μg/Insect)?
A: The value was 2.

Q: What about the “Pupal Formation: Normal pupa” value ([5]; 100 μg/Insect) of the same molecule?
A: Its value is 0.

Q: And the “Pupal Formation: Pupal Mortality” value ([5]; 100 μg/Insect)?
A: The value was 1.

Q: And the “LC50 ± S.E.” value [6]?
A: The value was 3.77 ± 0.59 µg/mL (≈ 10.2 µM).

Q: What about the “LC50 ± S.E.” value [7] of the same molecule?
A: Its value is 5.63 ± 0.62 µg/mL (≈ 15.3 µM).
